Source: the supplement of paper PMC10307832

What was measured:
Assay in all cases: relative viability (nuclei count vs DMSO), 5 days (fraction); higher = more cells survive
IDH-C35 + Foretinib = compound: Cc1ccccc1C(C(=O)NC1CCCCC1)N(C(=O)Cn1ccnc1C)c1cccc(F)c1 [IDH-C35] + COc1cc2c(Oc3ccc(NC(=O)C4(C(=O)Nc5ccc(F)cc5)CC4)cc3F)ccnc2cc1OCCCN1CCOCC1 [Foretinib] (partner 0.25 µM)
Outline: (§1)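 The day after seeding in 1536-well plates, lung cancer cell lines were treated by pin tool with a single drug, or with a fixed anchor-drug dose together with five library-drug doses (not always all listed) in √10 steps. After 5 days, a combined fix-and-stain solution (final 0.05% Triton X-100, 1% formaldehyde, 1 ug/ml Hoechst) was added. Nuclei counted on 4× images gave relative viability as treated counts over vehicle counts, reported as the median of duplicate plates.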

IDH-C35 + Linsitinib = compound: Cc1ccccc1C(C(=O)NC1CCCCC1)N(C(=O)Cn1ccnc1C)c1cccc(F)c1 [IDH-C35] + C[C@]1(O)C[C@@H](c2nc(-c3ccc4ccc(-c5ccccc5)nc4c3)c3c(N)nccn32)C1 [Linsitinib] (partner 1 µM)
Outline: as §1

IDH-C35 + Bortezomib = compound: Cc1ccccc1C(C(=O)NC1CCCCC1)N(C(=O)Cn1ccnc1C)c1cccc(F)c1 [IDH-C35] + CC(C)C[C@H](NC(=O)[C@H](Cc1ccccc1)NC(=O)c1cnccn1)B(O)O [Bortezomib] (partner 0.002 µM)
Outline: as §1

[1] = compound: CC1=C(C(=NN1)C)CC2=C(C3=C(S2)N(C(=O)N(C3=O)C)CC(C)C)C(=O)N4C[C@@H](CO4)O + Cc1cc(Nc2cc(N3CCN(C)CC3)nc(Sc3ccc(NC(=O)C4CC4)cc3)n2)n[nH]1 [Tozasertib] (partner 0.1 µM)
Outline: as §1

Row | Cell Line | relative viability (IDH-C35 + Foretinib; first compound 0.08 µM) | relative viability (IDH-C35 + Foretinib; first compound 0.253 µM) | relative viability (IDH-C35 + Foretinib; first compound 0.8 µM) | relative viability (IDH-C35 + Foretinib; first compound 2.53 µM) | relative viability (IDH-C35 + Foretinib; first compound 8 µM) | relative viability (IDH-C35 + Linsitinib; first compound 0.08 µM) | relative viability (IDH-C35 + Linsitinib; first compound 0.253 µM) | relative viability (IDH-C35 + Linsitinib; first compound 0.8 µM) | relative viability (IDH-C35 + Linsitinib; first compound 2.53 µM) | relative viability (IDH-C35 + Linsitinib; first compound 8 µM) | relative viability (IDH-C35 + Bortezomib; first compound 0.08 µM) | relative viability (IDH-C35 + Bortezomib; first compound 0.253 µM) | relative viability (IDH-C35 + Bortezomib; first compound 0.8 µM) | relative viability (IDH-C35 + Bortezomib; first compound 2.53 µM) | relative viability (IDH-C35 + Bortezomib; first compound 8 µM) | relative viability ([1]; first compound 0.0025 µM) | relative viability ([1]; first compound 0.007906 µM) | relative viability ([1]; first compound 0.025 µM) | relative viability ([1]; first compound 0.07906 µM) | relative viability ([1]; first compound 0.25 µM)
1 | Calu-6 | 0.884 | 0.899 | 0.908 | 0.919 | 0.868 | 0.993 | 0.928 | 0.961 | 0.932 | 0.88 | 0.971 | 1 | 1.04 | 1.07 | 0.955 | – | – | – | – | –
2 | ChaGo-K-1 | 0.871 | 0.973 | 0.913 | 0.928 | 0.839 | – | – | – | – | – | 0.956 | 0.942 | 1.09 | 0.939 | 1.03 | 0.232 | 0.214 | 0.235 | 0.206 | 0.228
3 | EBC-1 | 0.0931 | 0.109 | 0.0986 | 0.108 | 0.109 | 1.04 | 0.949 | 1.02 | 0.867 | 0.852 | 0.544 | 0.575 | 0.493 | 0.613 | 0.506 | – | – | – | – | –
4 | EKVX | 0.832 | 1.02 | 0.75 | 0.703 | 0.614 | 1.05 | 1.09 | 0.957 | 0.988 | 1.01 | 1.18 | 0.995 | 0.995 | 1.04 | 0.993 | 0.398 | 0.404 | 0.432 | 0.394 | 0.422
5 | EMC-BAC-2 | 0.947 | 1.04 | 1.1 | 0.925 | 0.944 | 0.797 | 0.799 | 0.798 | 0.777 | 0.812 | 1.01 | 1.08 | 1.13 | 1.09 | 1.11 | 0.268 | 0.296 | 0.272 | 0.3 | 0.317
6 | EPLC-272H | 0.659 | 0.828 | 0.751 | 0.71 | 0.733 | 1.12 | 1.31 | 1.08 | – | 1.25 | 0.906 | 0.962 | 1.05 | – | 0.856 | 0.267 | 0.227 | 0.324 | 0.259 | 0.609
7 | H3255 | 1.06 | 0.838 | 0.886 | 1.04 | 0.854 | 0.981 | 0.915 | 1.01 | 0.877 | 0.881 | 0.682 | 0.856 | 0.816 | 0.863 | 1.05 | 0.803 | 0.768 | 0.657 | 0.56 | 0.59
8 | HARA | 0.876 | 0.906 | 0.885 | – | 1.01 | 0.993 | 0.933 | 1.04 | 0.988 | 0.907 | 1.18 | 1.04 | 1.13 | 1.15 | 1.05 | 0.129 | 0.125 | 0.105 | 0.111 | 0.112
9 | HCC-15 | 1.07 | 0.974 | 0.938 | – | 0.869 | 0.866 | 0.828 | 0.788 | 0.835 | 0.764 | 1.03 | 0.958 | 1.01 | 0.936 | 0.982 | 0.458 | 0.519 | 0.435 | 0.469 | 0.448
